Drawing on patent publication US9555022B2, “Substituted triazolopyridines” (Bayer Intellectual Property GmbH, priority 2010, dated 2017), this text covers IC50 for 20 compounds.

Structures can show the parent of a compound that is named as a salt.

The term IC50 denotes the concentration that gives 50% inhibition.

human full length recombinant Mps-1 kinase, sequence (P33981 whole entry): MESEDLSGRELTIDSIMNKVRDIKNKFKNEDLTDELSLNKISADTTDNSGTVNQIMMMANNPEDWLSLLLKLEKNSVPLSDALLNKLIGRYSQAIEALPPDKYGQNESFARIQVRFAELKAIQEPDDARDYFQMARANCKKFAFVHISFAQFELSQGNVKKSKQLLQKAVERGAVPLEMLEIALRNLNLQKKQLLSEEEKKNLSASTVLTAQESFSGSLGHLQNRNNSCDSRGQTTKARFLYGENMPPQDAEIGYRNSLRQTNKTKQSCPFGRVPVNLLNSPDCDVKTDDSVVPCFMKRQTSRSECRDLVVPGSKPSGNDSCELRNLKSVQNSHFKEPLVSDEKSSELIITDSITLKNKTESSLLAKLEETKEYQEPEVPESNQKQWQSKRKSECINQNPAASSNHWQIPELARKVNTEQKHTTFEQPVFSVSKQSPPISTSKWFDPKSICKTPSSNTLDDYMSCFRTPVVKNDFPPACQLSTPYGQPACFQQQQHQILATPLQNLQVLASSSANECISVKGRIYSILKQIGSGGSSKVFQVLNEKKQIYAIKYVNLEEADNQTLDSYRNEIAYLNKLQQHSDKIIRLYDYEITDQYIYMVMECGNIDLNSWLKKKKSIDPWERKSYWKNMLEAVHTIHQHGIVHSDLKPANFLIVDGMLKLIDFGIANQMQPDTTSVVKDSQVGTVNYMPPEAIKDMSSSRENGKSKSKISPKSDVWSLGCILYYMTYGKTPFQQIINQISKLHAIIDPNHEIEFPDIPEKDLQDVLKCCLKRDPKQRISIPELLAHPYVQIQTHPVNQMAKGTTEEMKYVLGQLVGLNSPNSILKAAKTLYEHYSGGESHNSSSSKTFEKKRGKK

This assay concerns the target human full length recombinant Mps-1 kinase (Homo sapiens (Human), UniProt P33981). The assay can be described thus: Mps-1 Kinase Assay (TR-FRET). It counts as biochemical. The note with it: 10 μM ATP, 1 μM biotinylated peptide substrate, 60 min at 22° C., read-out: Mps-1 Inhibition, IC50 in M. Here is the method:
The human kinase Mps-1 phosphorylates a biotinylated substrate peptide. Detection of the phosphorylated product is achieved by time-resolved fluorescence resonance energy transfer (TR-FRET) from Europium-labelled anti-phospho-Serine/Threonine antibody as donor to streptavidin labelled with cross-linked allophycocyanin (SA-XLent) as acceptor. Compounds are tested for their inhibition of the kinase activity.
N-terminally GST-tagged human full length recombinant Mps-1 kinase (purchased from Invitrogen, Karslruhe, Germany, cat. no PV4071) was used. As substrate for the kinase reaction a biotinylated peptide of the amino-acid sequence […] (C-terminus in amide form, purchased from Biosynthan GmbH, Berlin) was used.
The concentration of Mps-1 in the assay was adjusted to the activity of the enzyme lot and was chosen appropriate to have the assay in the linear range, typical enzyme concentrations were in the range of about 1 nM (final conc. in the 5 μl assay volume).
The resulting mixture was incubated 1 h at 22° C. to allow the binding of the phosphorylated peptide to the anti-phospho(Ser/Thr)-Europium-antibody. Subsequently the amount of phosphorylated substrate was evaluated by measurement of the resonance energy transfer from the Europium-labelled anti-phospho(Ser/Thr) antibody to the Streptavidin-XLent.
Turning to `COc1cc(C(=O)N2CCOCC2)ccc1Nc1nc2ccc(-c3ccc(NC(=O)CC4CC4)cc3)cn2n1` [Example 01.01, 2-cyclopropyl-N-[4-(2-{[2-methoxy-4-(morpholin-4-ylcarbonyl)phenyl]amino}[,2]-triazolo[1,5-a]pyridin-6-yl)phenyl]acetamide], the IC50 was determined as 5.56 nM.

`CCOc1cc(C(=O)N2CCOCC2)ccc1Nc1nc2ccc(-c3ccc(NC(=O)CC4CC4)cc3)cn2n1` [Example 01.02, 2-cyclopropyl-N-[4-(2-{[2-ethoxy-4-(morpholin-4-ylcarbonyl)phenyl]amino}[,2]-triazolo[1,5-a]pyridin-6-yl)phenyl]acetamide]: the IC50 is no more than 1 nM.

Take `COc1cc(N2CCN(C)CC2)ccc1Nc1nc2ccc(-c3ccc(NC(=O)CC4CC4)cc3)cn2n1` [Example 01.03, 2-cyclopropyl-N-[4-(2-{[2-methoxy-4-(4-methylpiperazin-1-yl)phenyl]amino}[,2]-triazolo[1,5-a]pyridin-6-yl)phenyl]acetamide trifluoroacetate]: the IC50 stood at 6.02 nM.

With `CCOc1cc(C(=O)N2CCOCC2)ccc1Nc1nc2ccc(-c3ccc(NC(=O)Cc4ccc(F)cc4)cc3)cn2n1` [Example 02.02, N-[4-(2-{[2-ethoxy-4-(morpholin-4-ylcarbonyl)phenyl]amino}[,2]-triazolo[1,5-a]pyridin-6-yl)phenyl]-2-(4-fluorophenyl)acetamide], the half-inhibitory concentration (IC50) is no more than 1 nM.

For `COc1cc(C2=NC(C)(C)CO2)ccc1Nc1nc2ccc(-c3ccc(NC(=O)Cc4ccc(F)cc4)cc3)cn2n1` [Example 02.03, N-[4-(2-{[4-(4,4-dimethyl-4,5-dihydro-1,3-oxazol-2-yl)-2-methoxyphenyl]amino}[,2]-triazolo[1,5-a]pyridin-6-yl)phenyl]-2-(4-fluorophenyl)acetamide], the IC50 amounted to 1.04 nM.

Regarding `COc1cc(C(=O)N2CCN(C)CC2)ccc1Nc1nc2ccc(-c3ccc(NC(=O)Cc4ccc(F)cc4)cc3)cn2n1` [Example 02.04, 2-(4-fluorophenyl)-N-{4-[2-({2-methoxy-4-[(4-methylpiperazin-1-yl)carbonyl]phenyl}amino)[,2]triazolo[1,5-a]pyridin-6-yl]phenyl}acetamide], the IC50 was no more than 1 nM.

Consider `CCOc1cc(C(=O)N2CCN(C(=O)OC(C)(C)C)CC2)ccc1Nc1nc2ccc(-c3ccc(NC(=O)Cc4ccc(F)cc4)cc3)cn2n1` [Example 02.05, tert-butyl 4-(3-ethoxy-4-{[6-(4-{[(4-fluorophenyl)acetyl]amino}phenyl)[,2]triazolo[1,5-a]pyridin-2-yl]amino}benzoyl)piperazine-1-carboxylate], for which the IC50 is no more than 1 nM.

As to `CCOc1cc(C(=O)N2CCNCC2)ccc1Nc1nc2ccc(-c3ccc(NC(=O)Cc4ccc(F)cc4)cc3)cn2n1` [Example 02.06, N-[4-(2-{[2-ethoxy-4-(piperazin-1-ylcarbonyl)phenyl]amino}[,2]-triazolo[1,5-a]pyridin-6-yl)phenyl]-2-(4-fluorophenyl)acetamide], the IC50 is no more than 1 nM.

For the compound `CCOc1cc(C(=O)N2CCN(CC3CC3)CC2)ccc1Nc1nc2ccc(-c3ccc(NC(=O)Cc4ccc(F)cc4)cc3)cn2n1` [Example 02.07, N-(4-{2-[(4-{[4-(cyclopropylmethyl)piperazin-1-yl]carbonyl}-2-ethoxyphenyl)amino][,2]triazolo[1,5-a]pyridin-6-yl}phenyl)-2-(4-fluorophenyl)acetamide], the IC50 was no more than 1 nM.

On to `COc1cc(N2CCN(C)CC2)ccc1Nc1nc2ccc(-c3ccc(NC(=O)Cc4ccc(F)cc4)cc3)cn2n1` [Example 02.08, 2-(4-fluorophenyl)-N-[4-(2-{[2-methoxy-4-(4-methylpiperazin-1-yl)phenyl]amino}[,2]-triazolo[1,5-a]pyridin-6-yl)phenyl]acetamide trifluoroacetate], for which the IC50 was 1.05 nM.

Regarding `O=C(Cc1ccc(F)cc1)Nc1ccc(-c2ccc3nc(Nc4ccc(C(=O)N5CCOCC5)cc4OC(F)(F)F)nn3c2)cc1` [Example 02.10, 2-(4-fluorophenyl)-N-[4-(2-{[4-(morpholin-4-ylcarbonyl)-2-(trifluoromethoxy)phenyl]amino}[,2]-triazolo[1,5-a]pyridin-6-yl)phenyl]acetamide], the half-maximal inhibitory concentration (IC50) is no more than 1 nM.

For `CCOc1cc(N2CCOC2=O)ccc1Nc1nc2ccc(-c3ccc(NC(=O)Cc4ccc(F)cc4)cc3)cn2n1` [Example 02.12, N-[4-(2-{[2-ethoxy-4-(2-oxo-1,3-oxazolidin-3-yl)phenyl]amino}[,2]-triazolo[1,5-a]pyridin-6-yl)phenyl]-2-(4-fluorophenyl)acetamide], the IC50 is no more than 1 nM.

Consider `Cc1cc(N2CCOC2=O)ncc1Nc1nc2ccc(-c3ccc(NC(=O)Cc4ccc(F)cc4)cc3)cn2n1` [Example 02.13, 2-(4-fluorophenyl)-N-[4-(2-{[4-methyl-6-(2-oxo-1,3-oxazolidin-3-yl)pyridin-3-yl]amino}[,2]-triazolo[1,5-a]pyridin-6-yl)phenyl]acetamide], for which the IC50 was no more than 1 nM.

As for `COc1cc(C2=NCCO2)ccc1Nc1nc2ccc(-c3ccc(NC(=O)Cc4ccc(F)cc4)cc3)cn2n1` [Example 02.14, N-[4-(2-{[4-(4,5-dihydro-1,3-oxazol-2-yl)-2-methoxyphenyl]amino}[,2]-triazolo[1,5-a]pyridin-6-yl)phenyl]-2-(4-fluorophenyl)acetamide], the IC50 is no more than 1 nM.

`Cc1cc(C2=NCCO2)ccc1Nc1nc2ccc(-c3ccc(NC(=O)Cc4ccc(F)cc4)cc3)cn2n1` [Example 02.15, N-[4-(2-{[4-(4,5-dihydro-1,3-oxazol-2-yl)-2-methylphenyl]amino}[,2]triazolo[1,5-a]pyridin-6-yl)phenyl]-2-(4-fluorophenyl)acetamide]: the IC50 is no more than 1 nM.

Consider `COc1cc(C(=O)N2CCS(=O)(=O)CC2)ccc1Nc1nc2ccc(-c3ccc(NC(=O)Cc4ccc(F)cc4)cc3)cn2n1` [Example 02.18, N-{4-[2-({4-[(1,1-dioxidothiomorpholin-4-yl)carbonyl]-2-methoxyphenyl}amino)[,2]triazolo[1,5-a]pyridin-6-yl]phenyl}-2-(4-fluorophenyl)acetamide], for which the IC50 was no more than 1 nM.

For `COc1cc(C(=O)N2CC(O)C2)ccc1Nc1nc2ccc(-c3ccc(NC(=O)Cc4ccc(F)cc4)cc3)cn2n1` [Example 02.19, 2-(4-fluorophenyl)-N-{4-[2-({4-[(3-hydroxyazetidin-1-yl)carbonyl]-2-methoxyphenyl}amino)[,2]triazolo[1,5-a]pyridin-6-yl]phenyl}acetamide], the IC50 was no more than 1 nM.

Take `COc1cc(C(=O)N2CCC(O)CC2)ccc1Nc1nc2ccc(-c3ccc(NC(=O)Cc4ccc(F)cc4)cc3)cn2n1` [Example 02.20, 2-(4-fluorophenyl)-N-{4-[2-({4-[(4-hydroxypiperidin-1-yl)carbonyl]-2-methoxyphenyl}amino)[,2]triazolo[1,5-a]pyridin-6-yl]phenyl}acetamide]: the IC50 was no more than 1 nM.

`COc1cc(C(=O)NC2COC2)ccc1Nc1nc2ccc(-c3ccc(NC(=O)Cc4ccc(F)cc4)cc3)cn2n1` [Example 02.21, 4-{[6-(4-{[(4-fluorophenyl)acetyl]amino}phenyl)[,2]triazolo[1,5-a]pyridin-2-yl]amino}-3-methoxy-N-(oxetan-3-yl)benzamide]: the concentration for half-maximal inhibition (IC50) is no more than 1 nM.

Consider `COc1cc(C(=O)N2CCC2)ccc1Nc1nc2ccc(-c3ccc(NC(=O)Cc4ccc(F)cc4)cc3)cn2n1` [Example 02.22, N-[4-(2-{[4-(azetidin-1-ylcarbonyl)-2-methoxyphenyl]amino}[,2]-triazolo[1,5-a]pyridin-6-yl)phenyl]-2-(4-fluorophenyl)acetamide], for which the IC50 is no more than 1 nM.
